Laboratory results reported in patent US10500158B2, “Cationic lipid” (Kyowa Hakko Kirin Co., Ltd., priority 2014, dated 2019).

Tests used:
[1] = Average particle size of the preparations, measured with a particle size measurement apparatus; format: physicochemical; settings: preparations of Examples 21 and 22 (composition containing the compound and f7 siRNA-1)
Source text: Each sample was weighed to be compound 1/PEG-DMPE Na (manufactured by NOF Corp.)=57.3/5.52 mmol/L, and suspended in an aqueous solution containing hydrochloric acid and ethanol. A homogenous suspension was obtained by repeating stirring with a vortex stirring mixer and heating. This suspension was passed through a 0.05-μm polycarbonate membrane filter at room temperature to obtain a dispersion of compound 1/PEG-DMPE Na particles (liposomes). The average particle size of the obtained liposomes was measured with a particle size measurement apparatus to confirm that the average particle size fell within the range of 30 nm to 100 nm. The obtained liposome dispersion and the f7 siRNA-1 solution were mixed at a ratio of liposome dispersion:f7 siRNA-1 solution=3:1. A 3-fold amount of distilled water was further added thereto and mixed to prepare a compound 1/PEG-DMPE Na/f7 siRNA-1 complex dispersion.
The average particle sizes of the preparations (compositions) obtained in Examples 21 and 22 were measured using a particle size measurement apparatus.
The average particle sizes of the preparations (compositions) obtained in Example 23 and Comparative Example 1 were measured using a particle size measurement apparatus.

factor VII gene = experiment: Test Example 1: in vivo drug efficacy evaluation, factor VII protein concentration in plasma after i.v. administration of f7 siRNA-1 preparations; parameters: species or system Mice (Balb/c); settings: mice, intravenous, 0.03 and/or 0.3 mg/kg siRNA (f7 siRNA-1), 48 hours after administration; FIGS. 1 and 2
Experimental: The preparations (compositions containing compounds 1, 2, and 4 to 7, respectively, and f7 siRNA-1) obtained in Examples 21 and 22 were each subjected to an in vivo drug efficacy evaluation test by a method given below. Each preparation was used after being diluted with physiological saline according to the test.
Mice (Balb/c, obtained from CLEA Japan, Inc.) were acclimatized and raised. Then, each preparation was intravenously administered at 0.03 and/or 0.3 mg/kg in terms of the siRNA concentration to the mice. 48 hours after the administration, blood was collected, and the collected blood was centrifuged at 8000 rpm at 4° C. for 8 minutes using a high-speed refrigerated microcentrifuge (TOMY MX305; manufactured by Tomy Seiko Co., Ltd.). Absorbance in standard solutions and the plasma samples was measured in ARVO (405 nm) using BIOPHEN VII kit (manufactured by ANIARA, cat#: A221304) according to the method described in the instruction manual of the product. A calibration curve was prepared from the obtained absorbance, and the factor VII protein concentration in plasma was calculated. n=3 for each group.

SMILES | Particle size of obtained preparation (nm) [1] | expression of the factor VII gene (factor VII protein concentration in plasma) (factor VII gene)
CCCCC/C=C\C/C=C\CCCCCCCCC1(CCCCCCCC/C=C\C/C=C\CCCCC)CN(C)C1 [Compound 1, 1-Methyl-3,3-bis[(9Z,12Z)-octadeca-9,12-dien-1-yl]azetidine] | 113 nm | strongly suppressed
CCCCC/C=C\C/C=C\CCCCCCCCC1(CCCCCCCC/C=C\C/C=C\CCCCC)CN(CCC)C1 [Compound 2, 3,3-Bis[(9Z,12Z)-octadeca-9,12-dien-1-yl]-1-propylazetidine] | 116 nm | strongly suppressed
CCCCC/C=C\C/C=C\CCCCCCCCC1(CCCCCCCC/C=C\C/C=C\CCCCC)CN(C(=O)OCCCN(C)C)C1 [Compound 4, 3-(Dimethylamino)propyl 3,3-bis[(9Z,12Z)-octadeca-9,12-dien-1-yl]azetidine-1-carboxylate] | 127 nm | 
CCCCCCCC/C=C\CCCCCCCCC1(CCCCCCCC/C=C\CCCCCCCC)CN(C)C1 [Compound 5, 1-Methyl-3,3-bis[(Z)-octadec-9-en-1-yl]azetidine] | 115 nm | 
CCCCCC/C=C\CCCCCCCCC1(CCCCCCCC/C=C\CCCCCC)CN(C)C1 [Compound 6, 3,3-Bis[(Z)-hexadec-9-en-1-yl]-1-methylazetidine] | 123 nm | 
CCCCC/C=C\C/C=C\CCCCCCCCCCC1(CCCCCCCCCC/C=C\C/C=C\CCCCC)CN(C)C1 [Compound 7, 3,3-Bis[(11Z,14Z)-icosa-11,14-dien-1-yl]-1-methylazetidine] | 128 nm | 
